According to ChEMBL document CHEMBL5365419, “Identification of a Protein Arginine Methyltransferase 7 (PRMT7)/Protein Arginine Methyltransferase 9 (PRMT9) Inhibitor” (J Med Chem, 2023):
Activity calls are given as the source filed them. The calls are words filed in the database; no cut-off is given here.

Columns and labels:
[1] = target: Histone-lysine N-methyltransferase EZH2 (Homo sapiens) (UniProt Q15910); test: Inhibition of N-terminal His-tagged human full-length recombinant EZH2 (2 to 746 residues) in PRC2 complex at higher concentration using core histone as substrate and 3H-SAM as cosubstrate incubated for 60 mins by scintillation counter analysis
Chain of Histone-lysine N-methyltransferase EZH2 (Homo sapiens) (Q15910 whole entry, looked up, the tested form may be a part): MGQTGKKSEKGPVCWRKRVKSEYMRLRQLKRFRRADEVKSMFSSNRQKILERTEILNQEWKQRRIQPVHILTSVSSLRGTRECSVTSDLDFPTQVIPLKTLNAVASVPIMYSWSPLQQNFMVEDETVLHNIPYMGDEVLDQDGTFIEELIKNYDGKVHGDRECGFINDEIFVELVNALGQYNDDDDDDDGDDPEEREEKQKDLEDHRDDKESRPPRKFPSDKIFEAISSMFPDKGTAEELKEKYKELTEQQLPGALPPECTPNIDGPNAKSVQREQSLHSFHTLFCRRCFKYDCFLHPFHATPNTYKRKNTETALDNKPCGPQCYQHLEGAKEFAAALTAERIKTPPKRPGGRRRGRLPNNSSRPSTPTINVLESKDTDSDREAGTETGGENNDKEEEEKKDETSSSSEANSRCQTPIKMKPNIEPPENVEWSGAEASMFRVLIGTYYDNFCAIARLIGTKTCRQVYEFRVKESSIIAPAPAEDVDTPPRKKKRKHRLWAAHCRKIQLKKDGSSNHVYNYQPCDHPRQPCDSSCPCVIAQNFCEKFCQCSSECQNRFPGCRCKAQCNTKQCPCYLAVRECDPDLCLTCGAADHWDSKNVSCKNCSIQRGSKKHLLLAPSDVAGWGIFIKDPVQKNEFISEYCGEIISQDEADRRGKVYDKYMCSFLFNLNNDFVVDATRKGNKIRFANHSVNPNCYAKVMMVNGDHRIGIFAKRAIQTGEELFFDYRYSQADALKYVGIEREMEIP

[2] = target: T1, Histone-lysine N-methyltransferase EHMT2 (Homo sapiens) (UniProt Q96KQ7); test: Inhibition of N-terminal/C-terminal His-tagged human recombinant G9a (913 to 1193 residues) at higher concentration using histone H3 (1 to 21 residues) as substrate and 3H-SAM as cosubstrate incubated for 60 mins by scintillation counter analysis
T1 sequence (whole entry): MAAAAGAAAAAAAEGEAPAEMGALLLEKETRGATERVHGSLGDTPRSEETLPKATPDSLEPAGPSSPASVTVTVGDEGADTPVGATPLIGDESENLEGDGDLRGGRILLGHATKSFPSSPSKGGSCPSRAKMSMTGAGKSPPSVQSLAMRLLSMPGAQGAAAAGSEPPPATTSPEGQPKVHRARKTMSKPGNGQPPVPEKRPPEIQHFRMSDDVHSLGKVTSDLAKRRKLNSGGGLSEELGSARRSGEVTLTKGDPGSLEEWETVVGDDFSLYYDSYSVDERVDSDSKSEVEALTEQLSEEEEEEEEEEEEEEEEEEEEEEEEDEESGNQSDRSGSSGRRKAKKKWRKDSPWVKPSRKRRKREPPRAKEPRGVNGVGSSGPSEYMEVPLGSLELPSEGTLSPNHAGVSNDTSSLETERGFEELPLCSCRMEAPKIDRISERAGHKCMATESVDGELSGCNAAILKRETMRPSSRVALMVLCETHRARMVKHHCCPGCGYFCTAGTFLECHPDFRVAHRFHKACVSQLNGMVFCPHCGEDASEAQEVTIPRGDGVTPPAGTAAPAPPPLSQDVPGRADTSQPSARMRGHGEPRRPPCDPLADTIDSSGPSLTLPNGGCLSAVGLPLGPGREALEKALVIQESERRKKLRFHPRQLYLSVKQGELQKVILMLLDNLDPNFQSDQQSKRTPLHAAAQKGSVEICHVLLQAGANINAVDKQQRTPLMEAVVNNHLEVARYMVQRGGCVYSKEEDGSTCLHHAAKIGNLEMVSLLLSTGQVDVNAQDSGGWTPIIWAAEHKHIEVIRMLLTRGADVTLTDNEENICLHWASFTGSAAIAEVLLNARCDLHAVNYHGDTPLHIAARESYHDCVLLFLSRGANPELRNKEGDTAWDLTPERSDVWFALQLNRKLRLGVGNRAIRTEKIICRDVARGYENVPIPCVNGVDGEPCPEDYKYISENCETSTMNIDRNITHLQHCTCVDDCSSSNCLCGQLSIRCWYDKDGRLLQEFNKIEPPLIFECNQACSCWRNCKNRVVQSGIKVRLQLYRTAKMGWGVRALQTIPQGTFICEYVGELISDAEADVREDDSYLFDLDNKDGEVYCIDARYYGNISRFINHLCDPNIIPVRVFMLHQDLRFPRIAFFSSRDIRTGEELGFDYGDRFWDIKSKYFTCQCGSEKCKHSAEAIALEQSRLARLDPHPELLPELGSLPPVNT

inhibition [1]: inactive | inhibition [2]: inactive
Compound: COC(=O)c1cc(O)c2cc(NC(=O)NCCCNC(=N)NC[C@H]3O[C@@H](n4cnc5c(N)ncnc54)[C@H](O)[C@@H]3O)cc(C(F)(F)F)c2c1
